# pIC50: −log10 of the molar value.
# What was measured:
# Histone deacetylase 1 [1] = molecular target: T1, Histone deacetylase 1 (Homo sapiens, UniProt Q13547); assay: Inhibition of HDAC1 (unknown origin)
# [2] = molecular target: T2, Protein deacetylase HDAC6 (Homo sapiens, UniProt Q9UBN7); assay: Inhibition of HDAC6 (unknown origin)
# T2 sequence (Q9UBN7 whole entry): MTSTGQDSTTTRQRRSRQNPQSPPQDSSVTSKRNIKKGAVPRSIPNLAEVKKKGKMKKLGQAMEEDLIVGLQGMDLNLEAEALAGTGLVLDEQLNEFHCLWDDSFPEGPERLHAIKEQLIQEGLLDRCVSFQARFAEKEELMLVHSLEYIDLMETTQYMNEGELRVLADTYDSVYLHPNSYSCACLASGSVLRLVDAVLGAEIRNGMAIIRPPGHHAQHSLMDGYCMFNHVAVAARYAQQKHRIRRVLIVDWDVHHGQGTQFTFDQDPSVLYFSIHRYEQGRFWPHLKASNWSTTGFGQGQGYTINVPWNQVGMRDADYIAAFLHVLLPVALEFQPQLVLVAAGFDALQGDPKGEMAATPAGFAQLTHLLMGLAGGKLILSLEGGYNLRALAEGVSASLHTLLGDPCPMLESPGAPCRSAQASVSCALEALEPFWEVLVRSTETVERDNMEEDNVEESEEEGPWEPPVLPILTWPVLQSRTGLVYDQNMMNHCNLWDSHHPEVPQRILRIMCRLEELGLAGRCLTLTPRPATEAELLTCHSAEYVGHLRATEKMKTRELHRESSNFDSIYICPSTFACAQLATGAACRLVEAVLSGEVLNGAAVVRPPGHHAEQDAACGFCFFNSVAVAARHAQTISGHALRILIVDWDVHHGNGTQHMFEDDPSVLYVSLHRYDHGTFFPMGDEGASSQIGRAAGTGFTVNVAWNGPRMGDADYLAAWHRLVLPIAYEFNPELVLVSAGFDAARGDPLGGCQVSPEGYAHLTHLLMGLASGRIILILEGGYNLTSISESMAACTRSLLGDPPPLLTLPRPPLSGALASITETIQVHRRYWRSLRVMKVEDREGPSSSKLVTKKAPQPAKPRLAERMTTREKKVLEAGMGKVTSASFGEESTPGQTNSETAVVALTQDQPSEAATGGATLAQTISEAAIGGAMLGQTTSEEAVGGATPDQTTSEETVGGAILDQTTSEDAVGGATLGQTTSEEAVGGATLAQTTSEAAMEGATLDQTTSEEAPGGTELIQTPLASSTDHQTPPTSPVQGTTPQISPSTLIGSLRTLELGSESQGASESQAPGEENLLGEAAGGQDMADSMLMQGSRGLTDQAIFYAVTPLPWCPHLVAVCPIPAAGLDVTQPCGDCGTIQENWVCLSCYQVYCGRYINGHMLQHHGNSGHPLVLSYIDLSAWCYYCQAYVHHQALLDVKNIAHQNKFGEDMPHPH
# [3] = molecular target: T3, Protein deacetylase HDAC6 (Homo sapiens) (UniProt Q9UBN7); assay: Inhibition of HDAC6 derived from human HeLa cell nuclear extract at 100 uM incubated for 2 hrs relative to control; type: cell-free
# T3 sequence (whole entry): T2 sequence (Q9UBN7 whole entry)
# Histone deacetylase 1 [4] = molecular target: T1, Histone deacetylase 1; assay: Inhibition of HDAC1 derived from human HeLa cell nuclear extract at 100 uM incubated for 2 hrs relative to control; type: cell-free
# Histone deacetylase 2 [5] = molecular target: T4, Histone deacetylase 2 (Homo sapiens, UniProt Q92769); assay: Inhibition of human HDAC2 at 100 uM relative to control
# [6] = molecular target: Histone deacetylase 4 (Homo sapiens) (UniProt P56524); assay: Inhibition of human HDAC4 at 100 uM relative to control
# Histone deacetylase 3 = Histone deacetylase 3 (Homo sapiens, UniProt O15379); assay: Inhibition of HDAC3 (unknown origin)
# Histone deacetylase 8 = molecular target: T5, Histone deacetylase 8 (Homo sapiens, UniProt Q9BY41); assay: Inhibition of HDAC8 (unknown origin)
# T5 sequence (Q9BY41 whole entry): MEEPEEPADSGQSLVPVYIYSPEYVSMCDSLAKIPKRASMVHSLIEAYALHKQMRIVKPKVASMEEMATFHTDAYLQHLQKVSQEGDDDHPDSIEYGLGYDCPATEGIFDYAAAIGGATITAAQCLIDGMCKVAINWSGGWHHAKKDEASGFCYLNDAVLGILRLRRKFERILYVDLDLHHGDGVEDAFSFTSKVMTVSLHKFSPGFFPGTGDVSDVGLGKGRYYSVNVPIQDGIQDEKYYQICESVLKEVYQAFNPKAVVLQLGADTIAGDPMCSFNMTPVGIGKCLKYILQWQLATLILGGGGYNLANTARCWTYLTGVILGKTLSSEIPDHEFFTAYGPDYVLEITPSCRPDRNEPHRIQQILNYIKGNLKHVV
# Histone deacetylase 2 [7] = molecular target: T4, Histone deacetylase 2
# Histone deacetylase 7 = molecular target: T6, Histone deacetylase 7 (Homo sapiens, UniProt Q8WUI4); assay: Inhibition of HDAC7 (unknown origin)
# T6 sequence (Q8WUI4 whole entry): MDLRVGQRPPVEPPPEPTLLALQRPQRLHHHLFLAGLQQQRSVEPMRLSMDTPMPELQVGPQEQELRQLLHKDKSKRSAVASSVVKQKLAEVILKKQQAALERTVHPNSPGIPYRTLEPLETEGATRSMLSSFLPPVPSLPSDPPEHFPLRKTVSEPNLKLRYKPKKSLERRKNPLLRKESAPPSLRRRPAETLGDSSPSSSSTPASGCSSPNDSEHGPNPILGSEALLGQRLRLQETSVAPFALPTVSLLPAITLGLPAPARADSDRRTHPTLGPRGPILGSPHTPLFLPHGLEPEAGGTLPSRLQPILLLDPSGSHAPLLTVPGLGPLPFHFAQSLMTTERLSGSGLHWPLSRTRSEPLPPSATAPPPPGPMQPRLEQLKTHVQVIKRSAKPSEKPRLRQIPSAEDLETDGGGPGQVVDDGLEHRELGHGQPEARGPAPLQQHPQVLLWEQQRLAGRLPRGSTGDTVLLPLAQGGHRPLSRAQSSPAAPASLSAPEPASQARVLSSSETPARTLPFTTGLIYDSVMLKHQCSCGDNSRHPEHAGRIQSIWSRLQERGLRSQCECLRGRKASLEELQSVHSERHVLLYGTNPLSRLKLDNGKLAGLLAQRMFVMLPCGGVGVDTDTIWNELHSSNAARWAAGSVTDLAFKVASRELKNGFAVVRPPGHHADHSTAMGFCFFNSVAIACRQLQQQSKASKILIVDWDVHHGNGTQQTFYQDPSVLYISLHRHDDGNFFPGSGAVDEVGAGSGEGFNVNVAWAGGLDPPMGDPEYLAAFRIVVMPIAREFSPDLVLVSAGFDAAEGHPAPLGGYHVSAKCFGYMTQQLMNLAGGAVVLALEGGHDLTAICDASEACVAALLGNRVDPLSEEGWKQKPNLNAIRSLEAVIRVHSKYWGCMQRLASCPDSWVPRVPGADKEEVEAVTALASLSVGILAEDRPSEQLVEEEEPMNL
# Histone deacetylase 1 [8] = molecular target: T1, Histone deacetylase 1; assay: Inhibition of human recombinant HDAC1 using fluorogenic substrate
# [9] = Inhibition of human recombinant HDAC3/NcoR2 using RHKKAc as substrate
# T4 sequence (Q92769 whole entry): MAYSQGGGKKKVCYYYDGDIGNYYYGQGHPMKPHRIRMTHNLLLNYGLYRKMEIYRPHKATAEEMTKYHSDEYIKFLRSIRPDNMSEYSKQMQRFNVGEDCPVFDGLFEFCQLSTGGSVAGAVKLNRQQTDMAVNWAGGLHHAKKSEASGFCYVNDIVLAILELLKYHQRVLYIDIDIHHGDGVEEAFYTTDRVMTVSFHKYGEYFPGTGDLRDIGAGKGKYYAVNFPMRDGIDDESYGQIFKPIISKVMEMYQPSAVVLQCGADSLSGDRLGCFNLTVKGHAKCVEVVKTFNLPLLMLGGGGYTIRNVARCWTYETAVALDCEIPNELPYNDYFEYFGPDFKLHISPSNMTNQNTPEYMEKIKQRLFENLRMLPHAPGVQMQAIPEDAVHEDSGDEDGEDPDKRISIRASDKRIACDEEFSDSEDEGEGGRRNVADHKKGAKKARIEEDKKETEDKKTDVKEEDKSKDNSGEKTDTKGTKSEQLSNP
# T1 sequence (Q13547 whole entry): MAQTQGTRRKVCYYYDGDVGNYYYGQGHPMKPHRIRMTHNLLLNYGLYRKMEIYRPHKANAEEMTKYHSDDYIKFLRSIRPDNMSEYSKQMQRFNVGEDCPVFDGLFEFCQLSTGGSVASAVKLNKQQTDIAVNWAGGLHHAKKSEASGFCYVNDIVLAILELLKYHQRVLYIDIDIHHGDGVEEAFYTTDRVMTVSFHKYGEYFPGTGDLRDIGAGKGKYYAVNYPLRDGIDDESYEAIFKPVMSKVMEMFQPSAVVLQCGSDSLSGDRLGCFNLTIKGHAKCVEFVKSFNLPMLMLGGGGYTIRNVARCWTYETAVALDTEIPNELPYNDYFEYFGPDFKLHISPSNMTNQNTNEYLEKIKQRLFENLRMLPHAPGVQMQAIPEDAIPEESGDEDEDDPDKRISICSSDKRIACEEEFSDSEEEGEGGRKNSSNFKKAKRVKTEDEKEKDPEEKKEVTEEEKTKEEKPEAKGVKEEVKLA
# Chain of Histone deacetylase 4 (Homo sapiens) (P56524 whole entry): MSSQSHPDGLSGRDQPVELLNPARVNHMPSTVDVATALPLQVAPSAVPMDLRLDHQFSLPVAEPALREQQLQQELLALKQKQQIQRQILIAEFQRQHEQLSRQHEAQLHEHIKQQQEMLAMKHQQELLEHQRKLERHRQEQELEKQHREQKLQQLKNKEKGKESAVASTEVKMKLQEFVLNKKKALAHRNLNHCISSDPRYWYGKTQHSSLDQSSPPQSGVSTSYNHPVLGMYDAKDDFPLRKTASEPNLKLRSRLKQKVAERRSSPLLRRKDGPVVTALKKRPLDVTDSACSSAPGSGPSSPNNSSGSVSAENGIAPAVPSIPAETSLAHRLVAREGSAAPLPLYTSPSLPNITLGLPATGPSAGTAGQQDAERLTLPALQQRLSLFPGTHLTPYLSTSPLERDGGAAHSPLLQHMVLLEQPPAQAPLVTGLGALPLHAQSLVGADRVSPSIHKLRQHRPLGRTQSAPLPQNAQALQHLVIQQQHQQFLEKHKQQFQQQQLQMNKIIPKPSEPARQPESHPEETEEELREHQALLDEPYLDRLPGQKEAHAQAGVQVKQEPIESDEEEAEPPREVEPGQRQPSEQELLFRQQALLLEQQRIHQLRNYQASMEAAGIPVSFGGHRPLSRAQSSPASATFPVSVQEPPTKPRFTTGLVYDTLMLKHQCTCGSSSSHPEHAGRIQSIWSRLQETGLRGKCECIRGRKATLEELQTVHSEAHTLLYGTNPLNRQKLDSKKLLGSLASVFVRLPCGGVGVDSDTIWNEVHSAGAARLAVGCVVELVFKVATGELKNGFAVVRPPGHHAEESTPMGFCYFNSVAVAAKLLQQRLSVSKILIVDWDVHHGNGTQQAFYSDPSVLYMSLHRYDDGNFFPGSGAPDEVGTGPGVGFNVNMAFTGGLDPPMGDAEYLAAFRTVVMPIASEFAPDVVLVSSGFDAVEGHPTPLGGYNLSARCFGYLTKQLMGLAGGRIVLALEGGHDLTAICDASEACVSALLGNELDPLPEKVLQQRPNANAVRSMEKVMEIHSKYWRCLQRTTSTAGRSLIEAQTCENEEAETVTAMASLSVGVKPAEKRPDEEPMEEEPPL
# Chain of Histone deacetylase 3 (O15379 whole entry): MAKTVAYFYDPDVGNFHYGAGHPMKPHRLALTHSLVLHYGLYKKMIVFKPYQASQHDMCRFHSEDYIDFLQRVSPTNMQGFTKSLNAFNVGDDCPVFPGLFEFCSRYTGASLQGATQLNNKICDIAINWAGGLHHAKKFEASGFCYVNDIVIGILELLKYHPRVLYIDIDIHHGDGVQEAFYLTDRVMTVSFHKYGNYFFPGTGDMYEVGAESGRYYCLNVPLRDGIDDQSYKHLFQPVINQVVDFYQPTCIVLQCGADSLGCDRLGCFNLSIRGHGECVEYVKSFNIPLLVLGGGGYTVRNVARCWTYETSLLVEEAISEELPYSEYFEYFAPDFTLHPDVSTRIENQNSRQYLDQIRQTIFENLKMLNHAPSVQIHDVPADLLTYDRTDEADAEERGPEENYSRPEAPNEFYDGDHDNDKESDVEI
smiles,measurement,setting,value
C[C@@H]1CN(Cc2ccc(C(=O)NO)cc2)C[C@H](C)N1Cc1cccc(Cl)c1,pIC50,Histone deacetylase 1 [1],4.94
same,pIC50,[2],7.39
Oc1ccc(/C=C/c2cc(O)cc(O)c2)cc1,inhibition,[3],32%
same,inhibition,Histone deacetylase 1 [4],39%
same,inhibition,Histone deacetylase 2 [5],21%
same,inhibition,[6],23%
CC(C)(C)OC(=O)Nc1cccc(C(=O)/C=C/c2ccc(/C=C/C(=O)NO)cc2)c1,pIC50,Histone deacetylase 3,4.97
same,pIC50,Histone deacetylase 8,5.92
same,pIC50,[2],7.96
same,pIC50,Histone deacetylase 2 [7],5.68
CCCC(=O)O [BUTYRIC ACID],pIC50,Histone deacetylase 7,3.52
same,pIC50,Histone deacetylase 1 [1],3.52
same,pIC50,Histone deacetylase 2 [7],3.40
O=C(O)CCCc1ccccc1 [SODIUM PHENYLBUTYRATE],pIC50,Histone deacetylase 1 [8],3.79
CN1CCc2c(c3ccccc3n2Cc2ccc(C(=O)NO)cc2)C1 [TUBASTATIN A],pIC50,[9],< 4.52

# Reference: ChEMBL document CHEMBL5136998, “Chasing a Breath of Fresh Air in Cystic Fibrosis (CF): Therapeutic Potential of Selective HDAC6 Inhibitors to Tackle Multiple Pathways in CF Pathophysiology” (J Med Chem, 2022)
